# Measurements from patent EP0929544B1, “TRICYCLIC ANTITUMOR COMPOUNDS BEING FARNESYL PROTEIN TRANSFERASE INHIBITORS” (SCHERING CORPORATION, priority 1996, dated 1998).
# Molecular target: T1, Farnesyl protein transferase (FPT) (Rattus norvegicus, UniProt Q02293+Q04631)
# T1 construct: Farnesyl protein transferase (FPT) was partially purified from rat brain; from tissue; host or cells: rat brain
# Assay: In vitro enzyme assay: inhibition of farnesyl protein transferase (transfer of [3H]farnesyl from [3H]farnesyl pyrophosphate to Ras-CVLS)
# Assay type: biochemical
# Settings: @ 0.06 µg/µL
# Source text: 1. In vitro enzyme assays: Inhibition of farnesyl protein transferase and geranylgeranyl protein transferase.
# Farnesyl protein transferase (FPT) was partially purified from rat brain by ammonium sulfate fractionation followed by Q-Sepharose (Pharmacia, Inc.) anion exchange chromatography essentially as described by Yokoyama et al (Yokoyama, K., et al., (1991), A protein geranylgeranyltransferase from bovine brain: Implications for protein prenylation specificity, Proc. Natl. Acad. Sci USA 88: 5302-5306, the disclosure of which is incorporated herein by reference thereto). Human famesyl protein transferase was also expressed in E. coli, using cDNA clones encoding both the a and b subunits. The methods used were similar to those published (Omer, C. et al., (1993), Characterization of recombinant human farnesyl protein transferase: Cloning, expression, famesyl diphosphate binding, and functional homology with yeast prenyl-protein transferases, Biochemistry 32:5167-5176). Human famesyl protein transferase was partially-purified from the soluble protein fraction of E. coli as described above. […] Two forms of val^12-Ha-Ras protein were prepared as substrates for these enzymes, differing in their carboxy terminal sequence. One form terminated in cysteine-valine-leucine-serine (Ras-CVLS) the other in cystein-valine-leucine-leucine (Ras-CVLL). Ras-CVLS is a substrate for the famesyl protein transferase while Ras-CVLL is a substrate for geranylgeranyl protein transferase I. The cDNAs encoding these proteins were constructed so that the proteins contain an amino-terminal extension of 6 histidine residues. Both proteins were expressed in Escherichia coli and purified using metal chelate affinity chromatography. The radiolabelled isoprenyl pyrophosphate substrates, [^3H]farnesyl pyrophosphate and [^3H]geranylgeranyl pyrophosphate, were purchased from DuPont/New England Nuclear.
# Several methods for measuring famesyl protein transferase activity have been described (Reiss et al 1990, Cell 62: 81; Schaber et al 1990, J. Biol. Chem. 265: 14701; Manne et al 1990, PNAS 87: 7541; and Barbacid & Manne 1993, U.S. Patent No. 5,185,248). […] The reaction was allowed to proceed for 30 minutes at room temperature and then stopped with 0.5 ml of 4% sodium dodecyl sulfate (SDS) followed by 0.5 ml of cold 30% TCA. Samples were allowed to sit on ice for 45 minutes and precipitated Ras protein was then collected on GF/C filter paper mats using a Brandel cell harvester. Filter mats were washed once with 6% TCA, 2% SDS and radioactivity was measured in a Wallac 1204 Betaplate BS liquid scintillation counter. Percent inhibition was calculated relative to the DMSO vehicle control.
# T1 sequence (Q02293 whole entry, one chain of several): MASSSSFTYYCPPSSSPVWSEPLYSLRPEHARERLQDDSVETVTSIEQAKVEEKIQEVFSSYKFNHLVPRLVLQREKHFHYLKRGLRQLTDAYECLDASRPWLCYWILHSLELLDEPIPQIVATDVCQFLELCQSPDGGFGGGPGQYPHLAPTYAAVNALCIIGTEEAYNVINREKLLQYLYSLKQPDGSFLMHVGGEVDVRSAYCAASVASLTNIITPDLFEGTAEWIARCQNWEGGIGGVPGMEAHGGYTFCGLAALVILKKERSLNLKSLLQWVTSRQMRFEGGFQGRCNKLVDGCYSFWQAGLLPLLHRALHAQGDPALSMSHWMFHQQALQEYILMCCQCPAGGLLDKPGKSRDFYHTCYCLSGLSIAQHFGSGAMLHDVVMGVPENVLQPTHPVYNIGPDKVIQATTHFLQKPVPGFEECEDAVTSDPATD
row,FPT inhibition (percent inhibition),Structure (SMILES)
1,35%@ 0.06 µg/µL,"O=C(CCCC(=O)N1CCC(C2c3ncc(Br)cc3CCc3cc(Cl)cc(Cl)c32)CC1)NCc1ccccc1 (single isomer, unassigned) [Example 21]"
2,20 %@ 0.06 µg/µL,"O=C(NCCCC(=O)N1CCC(C2c3ncc(Br)cc3CCc3cc(Cl)cc(Cl)c32)CC1)c1ccncc1 (single isomer, unassigned) [Example 24]"

# Same assay, conditions: @ 88 nM; read-out: FPT inhibition (percent inhibition)
row,inhibition at 0.088 µM,Structure (SMILES)
1,12%,"O=C(CCCN1C(=O)c2ccccc2C1=O)N1CCC(C2c3ncc(Br)cc3CCc3cc(Cl)cc(Br)c32)CC1 (single isomer, unassigned; (+)) [Example 32, (+)-4-(3,10-DIBROMO-8-CHLORO-6,11-DIHYDRO-5H-BENZO[5,6]CYCLO-HEPTA[1,2-b]PYRIDIN-11-YL)-1-[4-(1,3-DIHYDRO-1,3-DIOXO-2H-ISOINDOL-2-YL)-1-OXOBUTYL)PIPERIDINE]"

# Same assay, conditions: @ 92 nM; read-out: FPT inhibition (percent inhibition)
row,inhibition at 0.092 µM,Structure (SMILES)
1,0%,"O=C(CCCC(=O)N1CCC(C2c3ncc(Br)cc3CCc3cc(Cl)cc(Cl)c32)CC1)Nc1ccc(Cl)cc1 (single isomer, unassigned) [Example 20]"

# Same assay, conditions: @ 110 nM; read-out: FPT inhibition (percent inhibition)
row,inhibition at 0.11 µM,Structure (SMILES)
1,43%,"CS(=O)(=O)NCC(=O)N1CCC(C2c3ncc(Br)cc3CCc3cc(Cl)cc(Cl)c32)CC1 (single isomer, unassigned; (+)) [Example 28]"
2,36%,"NC(=O)NCC(=O)N1CCC(C2c3ncc(Br)cc3CCc3cc(Cl)cc(Cl)c32)CC1 (single isomer, unassigned; (+)) [Example 30]"

# Same assay, conditions: @ 330nM; read-out: FPT inhibition (percent inhibition)
row,inhibition at 0.33 µM,Structure (SMILES)
1,47%,"CC(C)(C)OC(=O)NCCCC(=O)N1CCC(C2c3ncc(Br)cc3CCc3cc(Cl)cc(Cl)c32)CC1 (single isomer, unassigned) [Example 25]"

# Same assay, conditions: FPT INHIBITION; read-out: FPT IC50
row,IC50,Structure (SMILES)
1,540 nM,"CC(C)(C)OC(=O)NCC(=O)N1CCC(C2c3ncc(Br)cc3CCc3cc(Cl)cc(Cl)c32)CC1 (single isomer, unassigned) [Example 26]"
2,7 nM,"NC(=O)CCCCC(=O)N1CCC([C@H]2c3ncc(Br)cc3CCc3cc(Cl)cc(Br)c32)CC1 [Example 56, (+)-4-(3,10-DIBROMO-8-CHLORO-6,11-DIHYDRO-5H-BENZO[5,6]CYCLO-HEPTA[1,2-b]PYRIDIN-11(R)-YL)-EPSILON-OXO-1-PIPERIDININE HEXANAMIDE]"
3,19 nM,"COC(=O)CCCC(=O)N1CCC([C@H]2c3ncc(Br)cc3CCc3cc(Cl)cc(Br)c32)CC1 [Example 51, (+)-METHYL 4-(3,10-DIBROMO-8-CHLORO-6,11-DIHYDRO-5H-BENZO[5,6]CYCLO-HEPTA[1,2-b]PYRIDIN-11(R)-YL)-DELTA-OXO-1-PIPERIDININE PENTANOATE]"
4,15 nM,"COC(=O)CCCCC(=O)N1CCC([C@H]2c3ncc(Br)cc3CCc3cc(Cl)cc(Br)c32)CC1 [Example 54, (+)-METHYL 4-(3,10-DIBROMO-8-CHLORO-6,11-DIHYDRO-5H-BENZO[5,6]CYCLO-HEPTA[1,2-b]PYRIDIN-11(R)-YL)-EPSILON-OXO -1-PIPERIDININE HEXANOATE]"
5,28 nM,"CCOC(=O)CC(=O)N1CCC([C@H]2c3ncc(Br)cc3CCc3cc(Cl)cc(Br)c32)CC1 [Example 45, (+)-ETHYL 4-(3,10-DIBROMO-8-CHLORO-6,11-DIHYDRO-5H-BENZO[5,6]CYCLO-HEPTA[1,2-b]PYRIDIN-11(R)-YL)-BETA-OXO-1-PIPERIDININE PROPANOATE]"
6,14 nM,"NC(=O)CCC(=O)N1CCC([C@H]2c3ncc(Br)cc3CCc3cc(Cl)cc(Br)c32)CC1 [Example 50, (+)-4-(3,10-DIBROMO-8-CHLORO-6,11-DIHYDRO-5H-BENZO[5,6]CYCLO-HEPTA[1,2-b]PYRIDIN-11(R)-YL)-GAMMA-OXO-1-PIPERIDININE BUTANAMIDE]"
7,3.3 nM,"NC(=O)CCCCCC(=O)N1CCC([C@H]2c3ncc(Br)cc3CCc3cc(Cl)cc(Br)c32)CC1 [Example 59, (+)-4-(3,10-DIBROMO-8-CHLORO-6,11-DIHYDRO-5H-BENZO[5,6]CYCLO-HEPTA[1,2-b]PYRIDIN-11(R)-YL)-OMEGA-OXO-1-PIPERIDININE HEPTANAMIDE]"
8,68 nM,"NC(=O)CC(=O)N1CCC([C@H]2c3ncc(Br)cc3CCc3cc(Cl)cc(Br)c32)CC1 [Example 47, 4-(3,10-DIBROMO-8-CHLORO-6,11-DIHYDRO-5H-BENZO[5,6]CYCLO-HEPTA[1,2-b]PYRIDIN-1(R)-YL)-BETA-OXO-1-PIPERIDININE PROPANAMIDE]"

# More lines, now with the values behind:
row,Structure (SMILES),IC50
1,"CN(C)CCC(=O)N1CCC(C2c3ncc(Br)cc3CCc3cc(Cl)cc(Cl)c32)CC1 (single isomer, unassigned) [Example 5]",56 nM
2,"NC(=O)N1CCC(C2c3ncc(Br)cc3CCc3cc(Cl)cc(Cl)c32)CC1 (single isomer, unassigned; (+)) [Example 1, (+)-4-(3-BROMO-8,10-DICHLORO-6,11-DIHYDRO-5H-BENZO[5,6]CYCLOHEPTA[1,2-b]PYRIDIN-11-YL)-1-PIPERIDINE CARBOXAMIDE, reference compound]",390 nM
3,"CN(C)CCCCC(=O)N1CCC(C2c3ncc(Br)cc3CCc3cc(Cl)cc(Cl)c32)CC1 (single isomer, unassigned) [Example 7]",22 nM
4,"NCC(=O)N1CCC(C2c3ncc(Br)cc3CCc3cc(Cl)cc(Cl)c32)CC1 (single isomer, unassigned; (+)) [Example 3, (+)-1-(AMINOACETYL)-4-(3-BROMO-8,10-DICHLORO-6,11-DIHYDRO-5H-BENZO[5,6]CYCLO-HEPTA[1,2-b]PYRIDIN-11-YL) PIPERIDINE]",1100 nM
5,"O=C(CCCCCN1C(=O)C=CC1=O)N1CCC(C2c3ncc(Br)cc3CCc3cc(Cl)cc(Cl)c32)CC1 (single isomer, unassigned) [Example 23]",620 nM
6,"O=C(CCN1C(=O)CCC1=O)N1CCC(C2c3ncc(Br)cc3CCc3cc(Cl)cc(Cl)c32)CC1 (single isomer, unassigned) [Example 11]",76 nM
7,"NC(=O)CCC(=O)N1CCC(C2c3ncc(Br)cc3CCc3cc(Cl)cc(Cl)c32)CC1 (single isomer, unassigned) [Example 12]",61 nM
8,"CN(C)CC(=O)N1CCC(C2c3ncc(Br)cc3CCc3cc(Cl)cc(Cl)c32)CC1 (single isomer, unassigned) [Example 4]",380 nM
9,"CC(=O)NCCCC(=O)N1CCC(C2c3ncc(Br)cc3CCc3cc(Cl)cc(Cl)c32)CC1 (single isomer, unassigned) [Example 15]",63 nM

# Same assay, conditions: read-out: FPT IC50; FPT INHIBITION
row,Structure (SMILES),IC50
1,"O=C(O)CCC(=O)N1CCC([C@H]2c3ncc(Br)cc3CCc3cc(Cl)cc(Br)c32)CC1 [Example 49, (+)-SODIUM 4-(3,10-DIBROMO-8-CHLORO-6,11-DIHYDRO-5H-BENZO[5,6]CYCLO-HEPTA[1,2-b]PYRIDIN-11(R)-YL)-GAMMA-OXO-1-PI[…]]",270 nM
2,"O=C(O)CCCC(=O)N1CCC([C@H]2c3ncc(Br)cc3CCc3cc(Cl)cc(Br)c32)CC1 [Example 52, (+)-SODIUM 4-(3,10-DIBROMO-8-CHLORO-6,11-DIHYDRO-5H-BENZO[5,6]CYCLO-HEPTA[1,2-b]PYRIDlN-11(R)-YL)-DELTA-OXO-1-PI[…]]",44 nM
3,"O=C(O)CCCCC(=O)N1CCC([C@H]2c3ncc(Br)cc3CCc3cc(Cl)cc(Br)c32)CC1 [Example 55, (+)-SODIUM 4-(3,10-DIBROMO-8-CHLORO-6,11-DIHYDRO-5H-BENZO[5,6]CYCLO-HEPTA[1,2-b]PYRIDIN-11(R)-YL)-EPSILON-OXO-1-PI[…]]",17 nM
4,"O=C(O)CC(=O)N1CCC([C@H]2c3ncc(Br)cc3CCc3cc(Cl)cc(Br)c32)CC1 [Example 46, (+)-SODIUM 4-(3,10-DIBROMO-8-CHLORO-6,11-DIHYDRO-5H-BENZO[5,6]CYCLO-HEPTA[1,2-b]PYRIDIN-11(R)-YL)-BETA-OXO-1-PI[…]]",78 nM
